US20240391862A1, “(1,4,5-TRISUBSTITUTED-1H-PYRAZOL-3-YL)OXY-2-ALKOXY ALKYL ACIDS AND THEIR DERIVATIVES, THEIR SALTS AND THEIR USE AS HERBICIDAL AGENTS” (Bayer AKtiengesellschaft, priority 2021, published 2024)

Assays:
ZEAMX = experiment: Post-emergence herbicidal effect and crop plant compatibility, greenhouse pot test; type: in vivo, Zea mays; settings: one-leaf stage, rated visually after about 3 weeks vs untreated controls; for plant injury at 80 g/ha: read-out: Post-emergence effect at 80 g/ha against ZEAMX in %
Method in brief: (§1)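 Visual % activity scored roughly 3 weeks post-spray against untreated plants, where 100% means death and 0% equals control. Plants were treated at the one-leaf stage, 2 to 3 weeks after sowing in sandy loam, at 20 to 320 g/ha.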

TRZAS = experiment: as above; type: in vivo, Triticum aestivum; settings: 20 g/ha, one-leaf stage, rated visually after about 3 weeks vs untreated controls
Method in brief: as §1

ORYSA = experiment: as above; type: in vivo, Oryza sativa; settings: for Post-emergence effect at 320 g/ha against ORYSA in %: one-leaf stage, rated visually after about 3 weeks vs untreated controls; for Post-emergence effect against ORYSA: visual rating about 3 weeks after treatment, crop plant
Text: • ALOMY: Alopecurus myosuroides SETVI: Setaria viridis • AVEFA: Avena fatua POLCO: Fallopia convolvulus • AMARE: Amaranthus retroflexus ECHCG: Echinochloa crus-galli • LOLRJ: Lolium rigidum STEME: Stellaria media • VERPE: Veronica persica MATIN: Tripleurospermum inodorum • DIGSA: Digitaria sanguinalis ABUTH: Abutylon threophrasti • TRZAS: Triticum aestivum VIOTR: Viola tricolor • BRSNW: Brassica napus ZEAMX: Zea mays • PHBPU: Ipomoea purpurea GLXMA: Glycine max • ORYSA: Oryza sativa HORMU: Hordeum murinum
Seeds of monocotyledonous and dicotyledonous weeds and crop plants are placed in sandy loam in plastic or organic planting pots, covered with soil and cultivated in a greenhouse under controlled growth conditions. 2 to 3 weeks after sowing, the trial plants are treated at the one-leaf stage. The compounds of the invention, formulated in the form of wettable powders (WP) or as emulsion concentrates (EC), are then sprayed onto the green parts of the plants as aqueous suspension or emulsion with addition of 0.5% additive at a water application rate of 600 l/ha (converted). After the test plants have been kept in the greenhouse under optimum growth conditions for about 3 weeks, the activity of the preparations is rated visually in comparison to untreated controls. For example, 100% activity=the plants have died, 0% activity=like control plants.
Tables 20a to 38c below show the effects/crop compatibilities of selected compounds of the general formula (I) on various harmful plants at an application rate corresponding to 20 to 320 g/ha, which were obtained by the trial procedure specified above.

PHBPU = experiment: Post-emergence herbicidal effect, greenhouse pot test; type: in vivo, Ipomoea purpurea
Method in brief: (§2)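 Greenhouse pot plants in sandy loam receive a one-leaf-stage spray at 20 to 320 g/ha. Activity is assessed visually around 3 weeks afterwards on a 0–100% scale, where 100% means the plants have died.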

VIOTR = experiment: as above; type: in vivo, Viola tricolor
Method in brief: as §2

ABUTH = experiment: as above; type: in vivo, Abutilon theophrasti; settings: visual rating about 3 weeks after treatment
Method in brief: as §2

ALOMY = experiment: as above; type: in vivo, Alopecurus myosuroides; settings: 320 g/ha, visual rating about 3 weeks after treatment
Method in brief: as §2

AMARE = experiment: as above; type: in vivo, Amaranthus retroflexus; settings: visual rating about 3 weeks after treatment
Method in brief: as §2

AVEFA = experiment: as above; type: in vivo, Avena fatua; settings: 320 g/ha, visual rating about 3 weeks after treatment
Method in brief: as §2

DIGSA = experiment: as above; type: in vivo, Digitaria sanguinalis; settings: visual rating about 3 weeks after treatment
Method in brief: as §2

ECHCG = experiment: as above; type: in vivo, Echinochloa crus-galli
Method in brief: as §2

LOLRI = experiment: as above; type: in vivo, Lolium rigidum; settings: 320 g/ha
Method in brief: as §2

MATIN = experiment: as above; type: in vivo, Tripleurospermum inodorum
Method in brief: as §2

POLCO = experiment: as above; type: in vivo, Fallopia convolvulus
Method in brief: as §2

SETVI = experiment: as above; type: in vivo, Setaria viridis
Method in brief: as §2

VERPE = experiment: as above; type: in vivo, Veronica persica
Method in brief: as §2

`COC(Oc1nn(-c2ccccc2F)c(-c2ccc(F)nc2)c1Br)C(=O)O` (stereo not shown) [Example I-12] was tested, and the “Post-emergence effect at 20 g/ha against ZEAMX in %” value (ZEAMX; 20 g/ha) was 0%, the plant injury at 80 g/ha (ZEAMX; Zea mays, 504 h) was 20% and the “Post-emergence effect at 20 g/ha against TRZAS in %” value (TRZAS) was 0%. The “Post-emergence effect at 320 g/ha against ORYSA in %” value (ORYSA) was 20%.

`COC(=O)C(OC)Oc1nn(-c2ccc(F)nc2)c(-c2ccc(F)nc2)c1Br` (stereo not shown) [Example I-15] was tested, and the plant injury at 20 g/ha (ZEAMX; Zea mays, 504 h, 20 g/ha, read-out: Post-emergence effect at 20 g/ha against ZEAMX in %) was 0%, the plant injury at 80 g/ha (ZEAMX; Zea mays, 504 h) was 10% and the plant injury at 320 g/ha (ZEAMX; Zea mays, 504 h, 320 g/ha, read-out: Post-emergence effect at 320 g/ha against ZEAMX in %) was 20%. The percent crop injury (phytotoxicity) to wheat, post-emergence at 20 g/ha (TRZAS; Triticum aestivum, 504 h, read-out: Post-emergence effect at 20 g/ha against TRZAS in %) was 0%, the “Post-emergence effect at 320 g/ha against ORYSA in %” value (ORYSA) was 10% and the pest or weed control at 320 g/ha (PHBPU; Ipomoea purpurea, 504 h, 320 g/ha, read-out: Post-emergence effect against PHBPU in %) was 80%. For the same compound, the pest or weed control at 320 g/ha (VIOTR; Viola tricolor, 504 h, 320 g/ha, read-out: Post-emergence effect against VIOTR in %) was 80%.

In the case of `COC(=O)C(OC)Oc1nn(-c2cccc(Cl)c2F)c(-c2cncc(F)c2)c1Br` (stereo not shown) [Example I-17], the “Post-emergence effect at 20 g/ha against TRZAS in %” value (TRZAS) is reported as 10%, the “Post-emergence effect against ORYSA” value (ORYSA; 20 g/ha) is reported as 0% and the “Post-emergence effect against ORYSA” value (ORYSA; 80 g/ha) is reported as 20%. For the same compound, the “Post-emergence effect against ABUTH” value (ABUTH; 20 g/ha) was 80%, the “Post-emergence effect against ABUTH” value (ABUTH; 80 g/ha) was 90% and the “Post-emergence effect against ABUTH” value (ABUTH; 320 g/ha) was 90%. For the same compound, the “Post-emergence effect against ALOMY” value (ALOMY) was 90%, the “Post-emergence effect against AMARE” value (AMARE; 20 g/ha) was 80% and the “Post-emergence effect against AMARE” value (AMARE; 80 g/ha) was 80%. For the same compound, the “Post-emergence effect against AMARE” value (AMARE; 320 g/ha) was 80%, the “Post-emergence effect against AVEFA” value (AVEFA) was 90% and the “Post-emergence effect against DIGSA” value (DIGSA; 80 g/ha) was 80%. The “Post-emergence effect against DIGSA” value (DIGSA; 320 g/ha) was 90%, the “Post-emergence effect against ECHCG in %” value (ECHCG; 80 g/ha) was 80% and the “Post-emergence effect against ECHCG in %” value (ECHCG; 320 g/ha) was 90%. The “Post-emergence effect against LOLRI in %” value (LOLRI) was 80%, the “Post-emergence effect against MATIN in %” value (MATIN; 20 g/ha) was 80% and the “Post-emergence effect against MATIN in %” value (MATIN; 80 g/ha) was 80%. For the same compound, the “Post-emergence effect against MATIN in %” value (MATIN; 320 g/ha) was 80%, the “Post-emergence effect against PHBPU in %” value (PHBPU; 20 g/ha) was 90% and the “Post-emergence effect against PHBPU in %” value (PHBPU; 80 g/ha) was 90%. For the same compound, the “Post-emergence effect against PHBPU in %” value (PHBPU; 320 g/ha) was 90%, the “Post-emergence effect against POLCO in %” value (POLCO; 80 g/ha) was 80% and the “Post-emergence effect against POLCO in %” value (POLCO; 320 g/ha) was 80%. The “Post-emergence effect against SETVI in %” value (SETVI; 80 g/ha) was 80%, the “Post-emergence effect against SETVI in %” value (SETVI; 320 g/ha) was 90% and the “Post-emergence effect against VERPE in %” value (VERPE; 20 g/ha) was 80%. The “Post-emergence effect against VERPE in %” value (VERPE; 80 g/ha) was 80%, the “Post-emergence effect against VERPE in %” value (VERPE; 320 g/ha) was 90% and the “Post-emergence effect against VIOTR in %” value (VIOTR; 20 g/ha) was 90%. For the same compound, the “Post-emergence effect against VIOTR in %” value (VIOTR; 80 g/ha) was 90% and the “Post-emergence effect against VIOTR in %” value (VIOTR; 320 g/ha) was 90%.
